Laboratory results taken from paper PMC6602958, “Pharmacokinetics of anti-infectious reagents in silkworms” (Scientific Reports, 2019).
Where two headings read alike, the source gives them in different places. *1 amine or outer side, *2 acyl side, *3 side chain or, on linkers, in order; H or OH if unused. Where a SMILES comes first, the peptide text is derived from it. Bridges are numbered along the chain shown (N, C = ends). [ ]: non-standard residue; d: D form. The star is where a group is joined. hTyr(3S-OH,4S-OH,3'-OSO3H) = N[C@H](C(=O)O)[C@H](O)[C@@H](O)c1ccc(O)c(OS(=O)(=O)O)c1; Orn(4R-OH,5R-OH) = O=C([C@H](C[C@@H](O)[C@@H](O)N[*:3])N[*:1])[*:2]; Pro(3S-OH,4S-Me) = C[C@H]1CN[C@H](C(=O)O)[C@H]1O; X1 = CCCCCOc1ccc(-c2cc(-c3ccc(C(=O)*)cc3)no2)cc1; Gln(3R-OH) = NC(=O)C[C@@H](O)[C@H](N)C(=O)O; Hyp = O=C(O)[C@@H]1C[C@@H](O)CN1

Key:
[1] = Pharmacokinetics of antibiotics in silkworm hemolymph after injection (HPLC); conditions: for HPLC peak area in hemolymph: raw data of Fig. 1; for Time-course of the decrease in concentration in hemolymph (in words): after administration into hemolymph, alpha and beta phase; for Time-course of the decrease in concentration in hemolymph (in words) / Cltot (total body clearance): two-compartment model; for half-life: in vivo; for Cltot (total body clearance): silkworm, injection into hemolymph, dose per compound 10-50 mg/kg
Experimental: Antibiotics were injected into silkworm hemolymph and hemolymph was collected by cutting the legs at the indicated time.
Antibiotics dissolved in saline were injected into the hemolymph of 5th instar silkworms using a 1-mL syringe attached to a 27 G needle. Hemolymph was harvested from abdominal appendages by cutting them with scissors at the indicated time-points after administration, and mixed with an equal volume of acetone. Samples were centrifuged at 15,000 rpm for 5 min at 4 °C, and the supernatants were evaporated with a centrifuge evaporator[18]. The dried materials were dissolved in 50% methanol and filtrated through a 0.45-µm filter. […] The amount of antibiotics in the sample was quantified from the peak area of the chromatogram.

[2] = mammal, dose 8 mg/kg; cited from earlier work
cytochrome P450 [3] = test: Decay of cytochrome P450 substrates in in vitro culture of the silkworm midgut (HPLC); conditions: for HPLC peak area of substrate, Sample 1 / HPLC peak area of substrate, Sample 2: silkworm (Bombyx mori); for HPLC peak area of substrate: midgut culture, raw data of Fig. 3
Experimental: Silkworm midgut was incubated in medium with cytochrome P450 substrates at 30 °C. The samples were collected, extracted by acetone, and evaporated. The amounts of substrates were determined by HPLC analysis.
Silkworms (5th instar, 5 days) were dissected in a buffer (10 mM HEPES/NaOH, 0.9% NaCl, pH 7.9), and isolated organs were incubated with 3 mL TC-100 medium containing 10% fetal bovine serum, 50 µg/ml gentamicin, and substrates for the metabolic reaction. Whole samples (medium and organ) were homogenized and extracted by equal volumes of acetone followed by evaporation. Extracted samples were dissolved in 50 mM NaOAc buffer and treated with beta-glucosidase to measure the fluorescence of metabolized 7-ethoxycoumarin[6]. […] Samples for HPLC were dissolved in 50% methanol. HPLC analysis was performed using a PEGASIL ODS SP column (φ4.5 mm × 250 mm) with isocratic elution at a flow rate of 1 ml/min.

cytochrome P450 [4] = test: 7-ethoxycoumarin deethylation activity in silkworm tissue culture (fluorometry); assay type: in vitro ADME, Bombyx mori (silkworm); conditions: midgut, fat body, silk gland, Malpighian tubule in organ culture
Experimental: Figure 2 Tissue specificity of 7-ethoxycoumarin deethylation activity in silkworm. (A) The midgut, fat body, silk gland, and Malpighian tubule were extirpated from silkworms and incubated in medium containing 7-ethoxycoumarin at 30 °C. Medium was collected, extracted by acetone, and evaporated. Samples […] in 50 mM NaOAc buffer (pH 6.0) were treated with beta-glucosidase. The amount of 7-hydroxycomarin, a metabolite, was determined by fluorometry. (B) Inhibition of 7-ethoxycoumarin deethylation by cimetidine in the silkworm midgut. Silkworm midgut was incubated in medium containing 7-ethoxycoumarin and cimetidine at 30 °C. Samples were collected, extracted by acetone, and treated with beta-glucosidase. The amount of 7-hydroxycomarin was determined by fluorometry.
Samples for HPLC were dissolved in 50% methanol.

cytochrome P450 [5] = test: Metabolism of luciferin derivatives in cultured silkworm midgut (P450-Glo, luminometer); assay type: in vitro ADME, Bombyx mori (silkworm); conditions: silkworm midgut incubated with luciferin substrate at 30 °C
[6] = set-up: method as in PMID 15256761; conditions: rat, dose 1 mg/kg; cited from earlier work

CN[C@H](CC(C)C)C(=O)N[C@H]1C(=O)N[C@@H](CC(N)=O)C(=O)N[C@H]2C(=O)N[C@H]3C(=O)N[C@H](C(=O)N[C@H](C(=O)O)c4cc(O)cc(O)c4-c4cc3ccc4O)[C@H](O)c3ccc(c(Cl)c3)Oc3cc2cc(c3O[C@@H]2O[C@H](CO)[C@@H](O)[C@H](O)[C@H]2O[C@H]2C[C@](C)(N)[C@H](O)[C@H](C)O2)Oc2ccc(cc2Cl)[C@H]1O [Vancomycin]
HPLC peak area in hemolymph ([1]; 0 min after injection): 6413329
HPLC peak area in hemolymph ([1]; 1 min after injection): 7258474
HPLC peak area in hemolymph ([1]; 5 min after injection): 5965159
HPLC peak area in hemolymph ([1]; 10 min after injection): 4477743
HPLC peak area in hemolymph ([1]; 15 min after injection): 4233708
HPLC peak area in hemolymph ([1]; 30 min after injection): 5070602
HPLC peak area in hemolymph ([1]; 45 min after injection): 4520231
HPLC peak area in hemolymph ([1]; 60 min after injection): 4399183
HPLC peak area in hemolymph ([1]; 90 min after injection): 3764336
HPLC peak area in hemolymph ([1]; 120 min after injection): 4979100
HPLC peak area in hemolymph ([1]; 180 min after injection): 4348972
HPLC peak area in hemolymph ([1]; 240 min after injection): 4148058
Time-course of the decrease in concentration in hemolymph (in words) [1]: biphasic
half-life [1]: 13 h
Cltot (total body clearance) [1]: 0.03 mL/g/h
Cltot [2]: 0.08 mL/g/h
Vdss [2]: 0.6 mL/g
t1/2 [2]: 2.6 h

COc1ccc2[nH]c([S+]([O-])Cc3ncc(C)c(OC)c3C)nc2c1 (stereo not shown) [Omeprazole]
Metabolism in the silkworm midgut (in words) (cytochrome P450 [3]): metabolized in the silkworm midgut
HPLC peak area of substrate, Sample 1 (cytochrome P450 [3]; 0 h): 141638
HPLC peak area of substrate, Sample 2 (cytochrome P450 [3]; 0 h): 142171
HPLC peak area of substrate, Sample 1 (cytochrome P450 [3]; 1 h): 117549
HPLC peak area of substrate, Sample 2 (cytochrome P450 [3]; 1 h): 116381
HPLC peak area of substrate, Sample 1 (cytochrome P450 [3]; 4 h): 57706
HPLC peak area of substrate, Sample 2 (cytochrome P450 [3]; 4 h): 60668
HPLC peak area of substrate, Sample 1 (cytochrome P450 [3]; 20 h): 8164
HPLC peak area of substrate, Sample 2 (cytochrome P450 [3]; 20 h): 1815

CCOc1ccc2ccc(=O)oc2c1 [7-ethoxycoumarin]
Tissue with the highest capacity to metabolize the compound (in words) (cytochrome P450 [4]): the midgut, not the fat body, had the highest capacity to metabolize

O=C(O)C1CSC(c2nc3ccc(OCc4c(F)c(F)c(F)c(F)c4F)cc3s2)=N1 (stereo not shown) [Luciferin-PFBE]
Production of luciferin (RFU/organ) (cytochrome P450 [5]): 229,000 RFU/organ

CCCCCOc1ccc(-c2cc(-c3ccc(C(=O)N[C@H]4C[C@@H](O)[C@@H](O)NC(=O)[C@@H]5[C@@H](O)[C@@H](C)CN5C(=O)[C@H]([C@H](O)CC(N)=O)NC(=O)[C@H]([C@H](O)[C@@H](O)c5ccc(O)c(OS(=O)(=O)O)c5)NC(=O)[C@@H]5C[C@@H](O)CN5C(=O)[C@H]([C@@H](C)O)NC4=O)cc3)no2)cc1 [Micafungin] (X1-[Orn(4R-OH,5R-OH)]T[Hyp][hTyr(3S-OH,4S-OH,3'-OSO3H)][Gln(3R-OH)][Pro(3S-OH,4S-Me)]; lactam 1-C)
Cltot [6]: 0.07 mL/g/h
Vdss [6]: 0.4 mL/g
t1/2 [6]: 5.0 h
HPLC peak area in hemolymph ([1]; 1 min after injection): 2078182
HPLC peak area in hemolymph ([1]; 5 min after injection): 1273864
HPLC peak area in hemolymph ([1]; 20 min after injection): 874882
HPLC peak area in hemolymph ([1]; 45 min after injection): 1057083
HPLC peak area in hemolymph ([1]; 60 min after injection): 1430059
HPLC peak area in hemolymph ([1]; 75 min after injection): 1093500
HPLC peak area in hemolymph ([1]; 90 min after injection): 1117482
HPLC peak area in hemolymph ([1]; 120 min after injection): 1017294
HPLC peak area in hemolymph ([1]; 150 min after injection): 1043908
HPLC peak area in hemolymph ([1]; 180 min after injection): 936752
HPLC peak area in hemolymph ([1]; 240 min after injection): 1002362
HPLC peak area in hemolymph ([1]; 360 min after injection): 970304
Time-course of the decrease in concentration in hemolymph (in words) [1]: biphasic
half-life [1]: 12 h
Cltot (total body clearance) [1]: 0.03 mL/g/h

C[C@]12CC[C@H]3[C@@H](CCC4=CC(=O)CC[C@@]43C)[C@@H]1CC[C@@H]2O [Testosterone]
Metabolism in the silkworm midgut (in words) (cytochrome P450 [3]; in vitro organ culture, up to 20 h incubation): metabolized in the silkworm midgut
HPLC peak area of substrate (cytochrome P450 [3]; 0 h): 3160000
HPLC peak area of substrate (cytochrome P450 [3]; 1 h): 1620000
HPLC peak area of substrate (cytochrome P450 [3]; 4 h): 1110000
HPLC peak area of substrate (cytochrome P450 [3]; 20 h): 1210000
